Laboratory results from paper PMC8201324, “Pyrazoles and Pyrazolines as Anti-Inflammatory Agents” (Molecules, 2021).

Target: T1, soybean lipoxygenase (Glycine max, UniProt P08170)
T1 construct: purchased Sigma Chemical, Co
T1 sequence (P08170 1-839): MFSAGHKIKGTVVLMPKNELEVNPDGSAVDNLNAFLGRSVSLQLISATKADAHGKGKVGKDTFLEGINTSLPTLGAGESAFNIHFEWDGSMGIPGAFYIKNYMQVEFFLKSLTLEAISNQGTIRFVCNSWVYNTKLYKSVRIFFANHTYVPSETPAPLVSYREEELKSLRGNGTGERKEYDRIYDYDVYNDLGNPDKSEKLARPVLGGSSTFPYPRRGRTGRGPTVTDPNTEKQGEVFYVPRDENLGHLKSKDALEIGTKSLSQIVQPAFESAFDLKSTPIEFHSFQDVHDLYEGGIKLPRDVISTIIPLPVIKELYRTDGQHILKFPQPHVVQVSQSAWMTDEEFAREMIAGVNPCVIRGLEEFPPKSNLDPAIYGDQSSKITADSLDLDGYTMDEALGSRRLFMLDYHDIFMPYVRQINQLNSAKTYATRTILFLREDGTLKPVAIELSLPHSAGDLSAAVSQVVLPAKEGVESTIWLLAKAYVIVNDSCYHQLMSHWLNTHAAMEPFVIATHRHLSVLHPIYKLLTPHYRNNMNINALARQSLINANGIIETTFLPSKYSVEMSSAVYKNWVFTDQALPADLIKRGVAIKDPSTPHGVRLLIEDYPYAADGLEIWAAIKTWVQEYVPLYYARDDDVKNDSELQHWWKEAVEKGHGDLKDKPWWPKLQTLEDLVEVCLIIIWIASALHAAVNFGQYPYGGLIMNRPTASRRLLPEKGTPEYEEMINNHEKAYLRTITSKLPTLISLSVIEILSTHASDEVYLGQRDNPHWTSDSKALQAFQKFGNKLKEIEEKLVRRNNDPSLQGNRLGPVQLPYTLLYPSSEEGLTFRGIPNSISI
Experiment: Soybean lipoxygenase inhibition study
Assay type: biochemical

inhibition at 100 µM (compound 100 µM, linoleic acid sodium salt 50 µM, read-out: LOX % Inhibition 100 µM, LLA 50 µM): 89.6%
type of LOX inhibition (varying sodium linoleate concentration, enzyme and compound kept stable): competitive inhibition
Compound: CC(=O)n1nc(-c2ccc(Cl)cc2)cc1-c1cccc2ccccc12 [Compound 2g, 1-(3-(4-chlorophenyl)-5-(naphthalen-1-yl)-1H-pyrazol-1-yl)ethan-1-one]
